Patent US5229265A, “Process for analyzing clastogenic agents” (Litron Laboratories, priority 1990, dated 1993)

System: polychromatic cells (PCEs)
Assay: PCE count in blood by flow cytometry
Type: in vivo, mouse
Conditions: mice dosed with DMBA
Procedure: When two dyes are used for simultaneous micronucleus and PCE discrimination, the cell suspension is prepared as follows: The Hoechst 33258 working solution described above is prepared and is filtered through an 0.2 micron Acro-disk (Gilman Sciences). In addition, a propidium iodide (PI) working solution is prepared (5 mg PI/100 ml phosphate buffered saline (PBS)). A buffer-dye solution is then prepared by adding the PI solution (100 μl) and Hoechst 33258 working solution (25 μl) to PBS (867.5 μl). The resulting buffer-dye solution is then dispensed (992.5 μl) into samples tubes. A sample of fixed blood (15 μl) is then added to the corresponding tube. When blood from a malaria (P. berghei) infected mouse was fixed and stained by this procedure, the bivariate pattern shown in FIG. 1B resulted, in which a stronger red fluorescence signal was obtained. In this case, good resolution is achieved if BSA is omitted from the stained cell suspension. The pH of the stained solution is important for good fluorescence emission profiles and resolution of the different cell populations. With Hoechst 33258 and propidium iodide, good results can be obtained in the range from pH 6 to pH 8. Lower or higher pH levels cause a broadening of the fluorescence patterns which adversely affect the resolution of the PCes and micronucleated cells. Operationally,it is advisable to store the fixed samples and analyze freshly stained samples.
Although it is inappropriate to directly compare the number of MNs in the 0 hr and 96 hr samples because of this PCE change, it is possible to normalize the data to take into account said change. An increase in the number of PCEs will cause a decrease in the total number of MNs counted in the PCE window for a 96 hour sample. […]
Another staining embodiment of this invention involves the use of dual parameter data acquisition in conjunction with two dyes, Hoechst 33258 and propidium iodide so as to analyze both MNs and PCEs. […] Propidium iodide endows the PCEs with a strong red fluorescence signal which pulls them out of the RBC contour. […]

Cc1c2ccccc2c(C)c2c1ccc1ccccc12 [DMBA, dimethyl benzathracene]
production of PCEs: production of PCEs is suppressed
